Patent US20220168331A1, “PRR-Activating and MicroRNA-Inhibiting Molecules and Methods of Using Same” (Duke University, priority 2019, published 2022)
Entries after “also recorded” stand apart in the source; their conditions may differ. {PPP} = triphosphate

Assays:
[1] = test system: PANC-02 mouse pancreatic cancer cell line; assay: PRR tolerance: IFN-β production by pretreated PANC-02 cells after secondary treatment; type: cell-based; settings: FIG. 8; for IFN-β production, cells pre-treated with mixture of 1-MT and CH223191 versus DMSO: substance given as mixture of IDO inhibitor and AHR inhibitor; for IFN-β production after secondary treatment, cells pretreated with the substance versus control: pretreatment at sublethal dose overnight, then pIC/DF complex 0.6 μg/ml
Protocol: (§1) In addition to prior activation of MDA5, prior activation of TLR4, RIG-I, and STING induced self- and cross-tolerance of same and different PRRs.
(§2) In particular, mouse pancreatic cancer cell line PANC-02 and melanoma cell line B16-F10 were pretreated with dH2O, MDA5 agonist (pIC/DF complex), or TLR4 agonist (HMGB1) in the presence of dimethyl sulfoxide (DMSO) (vehicle control), CH223191 (AHR inhibitor), 1-MT (IDO inhibitor), or L-Kyn (AHR activator). After overnight incubation, the cells were replenished with fresh culture media and treated with pIC/DF complex (0.6 μg/ml). One day after second treatment, IFN-β production was measured using ELISA. (n=3).

[2] = test system: B16-F10 melanoma cell line; assay: PRR tolerance: IFN-β production by pretreated B16-F10 cells after secondary treatment; type: cell-based, mouse; settings: FIG. 8; for IFN-β production, cells pre-treated with mixture of 1-MT and CH223191 versus DMSO: substance given as mixture of IDO inhibitor and AHR inhibitor; for IFN-β production after secondary treatment, cells pretreated with the substance versus control: pretreatment at sublethal dose overnight, then pIC/DF complex 0.6 μg/ml
Protocol: as §1, §2

[3] = test system: Mouse macrophage cells; assay: PRR tolerance: IFN-β production by pretreated macrophages after secondary treatment; type: cell-based; settings: for IFN-β production, cells pre-treated with mixture of 1-MT and CH223191 versus DMSO: substance given as mixture of IDO inhibitor and AHR inhibitor, FIG. 9; for IFN-β production after secondary treatment, cells pretreated with the substance versus control: pretreatment overnight, then cytoplasmic PRR agonists, FIG. 9B
Protocol: as §1
(§3) Mouse BM-DCs were treated with pIC/DF complex (cytoplasmic MDA5), ICR4/DF complex (cytoplasmic RIG-I), 2′3′-cGAMP (cytoplasmic STING), or transfection agent DF alone (FIG. 9A). Mouse macrophage cells were treated with dH2O (control), LPS (surface TLR4), or HMGB1 (surface TLR4), followed by treatment with DMSO (control) or mixture of CH223191 (AHR inhibitor) and 1-MT (IDO inhibitor) (FIG. 9B). After overnight incubation, the cells were replenished with fresh culture media and treated with indicated cytoplasmic PRR agonists. Levels of IFN-β production were measured using ELISA. □ P<0.05.

[4] = test system: B16-F10 mouse melanoma cells; assay: IFN-β production (ELISA) by B16-F10 cells; type: cell-based; settings: for IFN-β production compared to ICR2 and ICR2AS conjugated with seed mutant anti-miR-21: FIG. 6B, n=3
Protocol: (§4) B16-F0 and B16-F10 mouse melanoma cells lines are originated from the same parental cell line but they have different metastatic ability. B16-F0 cell line has no or marginal metastatic ability but B16-F10 cell line has potent metastatic ability. B16-F0 and B16-F10 cells (1×10^4) were treated with RIG-I agonist ICR4-liposome complex (0.6 μg/ml). After overnight incubation, cytotoxicity and IFN-β production by the cells were measured using MTT assay and ELISA, respectively. […] Tumor suppressor proteins, such as programmed cell death 4 (PDCD4) and phosphatase and tensin homolog (PTEN), and pre-miR-21 levels in B16-F0 and B16-F10 cells were measured using real-time qPCR. […] It was hypothisized that miR-21 would interfere with antitumor effects of RIG-I agonists in B16-F10 melanoma cells.
To improve therapeutic effects of RIG-I agonists in B16-F10 cells, we designed and generated a novel RIG-I-activating RNA molecule (named RigantmiR-21) that is composed of a RIG-I-activating RNA structure (ICR4: 5′ppp-containg double stem-loop RNA) and a complementary sequence to mature miR-21. B16-F10 melanoma cells were transfected once or twice with RigantmiR-21, mutant RigantmiR-21, anti-miR-21, or ICR4 (0.6 μg/ml) using liposomal transfection agent DharmaFECT (DF). The expression of miR-21 target genes was determined using qPCR. IFN-β production was determined using ELISA. […] Anti-miR-21, ICR4, and RigantmiR-21 RNAs were complexed with in vivo transfection agent jet-PEI. Jet-PEI alone or RNA-jet-PEI complexes (25 μg) were injected thrice intratumorally into B16-F10 melanoma-bearing immunocompetent mice. (n=6).
Additionally, conjugation of anti-miR-21 improved the ability of other types of RIG-I agonists, such as ICR2 and ICR2AS^4 (sequences shown in FIG. 6A) to induce IFN-β production by cancer cells.

[5] = test system: Mouse BM-DCs; assay: PRR tolerance: IFN-β production by pretreated BM-DCs after secondary treatment; type: cell-based; settings: pretreatment overnight, then cytoplasmic PRR agonists; FIG. 9A
Protocol: as §1, §3

[6] = test system: B16-F0 mouse melanoma cells; assay: IFN-β production (ELISA) by B16-F0 cells; type: cell-based; settings: for IFN-β production after first and second transfection: 12.5 nM, DharmaFECT, one day after first and second transfection
Protocol: as §4
B16-F0 mouse melanoma cells were transfected with ICR4, RigantmiR-21, mutant RigantmiR-21, or anti-miR-21 at 12.5 nM using DharmaFECT (DF). After overnight incubation, the cells were replenished with fresh culture media, followed by another transfection with the same dose of RNAs. One day after the first and second transfection, IFN-β production by these cells were determined using ELSIA.
(§5) B16-F0 mouse melanoma cells or bone marrow-derived dendritic cells (BM-DCs) were transfected once (x1) or twice (x2) with a complex of polyI:C (pIC) (0.6 μg/ml) and transfection agent jet-PEI. IFN-β production by the cells one day after each transfection was determined using ELISA.

[7] = test system: bone marrow-derived dendritic cells (BM-DCs); assay: IFN-β production (ELISA) by BM-DCs after single or repeated pIC/jet-PEI transfection; type: cell-based, mouse; settings: pIC 0.6 μg/ml with jet-PEI, transfected once or twice, one day after each transfection
Protocol: as §5

[8] = test system: B16-F10 melanoma-bearing mice; assay: Anticancer response (survival) after single or multiple intratumoral pIC/jet-PEI injections; type: in vivo, mouse; settings: pIC/jet-PEI complex 25 μg intratumorally once or thrice
[9] = test system: B16-F0 mouse melanoma cells; assay: Cytotoxicity (MTT assay) in B16-F0 cells; type: cell-based; settings: for cytotoxic effects after repeated treatments: two transfections at various concentrations, DharmaFECT, MTT three days after first transfection
Protocol: as §4
B16-F0 mouse melanoma cells were transfected with ICR4, RigantmiR-21, mutant RigantmiR-21, or anti-miR-21 at various concentrations using DharmaFECT (DF). After overnight incubation, the cells were replenished with fresh culture media, followed by another transfection with the same dose of RNAs. Three days after the first transfection, cytotoxicity levels were measured using MTT assay.

[10] = test system: B16-F10 mouse melanoma cells; assay: Cytotoxicity (MTT assay) in B16-F10 cells; type: cell-based; settings: ICR4-liposome complex 0.6 μg/ml, overnight incubation
Protocol: as §4

[11] = test system: Human and murine cancer cell lines and human normal cells; assay: Cytotoxicity (MTT assay) in cancer cell lines and normal cells; type: cell-based; settings: transfected 0.8 mg/ml, 72 h after treatment, FIG. 2
Protocol: Human and murine cancer cell lines and human normal cells in 96-well plate (7000 cells/well) were transfected with RIG-I agonist 5′ppp ssRNA ICR4 ([…]). Cells were harvested 72 h after treatment and analyzed for cytotoxicity using MTT assay. N=3. *, P<0.05.

[12] = test system: mouse pancreatic, adenocarcinoma, and sarcoma cells; assay: Antitumor activities in mouse pancreatic cancer and sarcoma cells (overall statements); type: cell-based; settings: FIGS. 4A-4C
Protocol: The antitumor effects of RigantmiR-21 are not limited to melanoma cells. KPC-4839 (mouse pancreatic ductal adenocarcinoma), PANC-02 (mouse pancreatic adenocarcinoma) and mouse sarcoma cell line cells were transfected with indicated ICR4, RigantmiR-21, mutant RigantmiR-21, or anti-miR-21 (0.6 μg/ml) using DharmaFECT (DF). After overnight incubation, IFN-β production by these cells was determined using ELSIA. (n=3). As shown in FIGS. 4A-4C, RigantmiR-21 treatments induced cell death and IFN-β production by mouse pancreatic, adenocarcinoma, and sarcoma cells that are also resistant to RIG-I agonist ICR4.

[13] = test system: 4T1 mouse breast cancer cells, B16-F10 mouse melanoma cells, 403688 mouse sarcoma cells, and WM266.4 human melanoma cells; assay: IFN-β production (ELISA) by different cancer cells after first and second transfection with RIG-I agonists; type: cell-based; settings: DharmaFECT, one day after first and second transfection; FIG. 11
Protocol: 4T1 mouse breast cancer cells, B16-F10 mouse melanoma cells, 403688 mouse sarcoma cells, and WM266.4 human melanoma cells were transfected with indicated RIG-I agonists using liposomal transfection agent DharmaFECT (DF). After overnight incubation, the cells was replenished with fresh culture media, followed by another transfection with the same RIG-I agonists. One day after first and second transfection IFN-β production by these cells were determined using ELSIA.

[14] = ICR4-liposome complex 0.6 μg/ml, overnight incubation, ELISA

Molecule: Cn1cc(C[C@H](N)C(=O)O)c2ccccc21 [1-MT, 1-methyl tryptophan]
- IFN-β production, cells pre-treated with mixture of 1-MT and CH223191 versus DMSO [1]: significantly increased
- IFN-β production, cells pre-treated with mixture of 1-MT and CH223191 versus DMSO [2]: significantly increased
- IFN-β production, cells pre-treated with mixture of 1-MT and CH223191 versus DMSO [3]: significantly increased

Molecule: ICR2AS-anti-miR-21: RIG-I agonist ICR2AS conjugated with anti-miR-21; SEQ ID NO: 9 (GGAUGCUGUCAGGUACCGCAUCCUCAACAUCAGUCUGAUAAGCUA; listed as RNA, further chemistry not given here)
- IFN-β production compared to ICR2 and ICR2AS conjugated with seed mutant anti-miR-21 [4]: increased induction

Molecule: lipopolysaccharide [LPS]
- IFN-β production after secondary treatment, cells pretreated with the substance versus control [3]: significantly decreased

Molecule: Nc1nc2c(ncn2[C@@H]2O[C@@H]3COP(=O)(O)O[C@H]4[C@@H](O)[C@H](n5cnc6c(N)ncnc65)O[C@@H]4COP(=O)(O)O[C@@H]2[C@@H]3O)c(=O)[nH]1 [2′3′-cGAMP]
- IFN-β production after secondary treatment, cells pretreated with the substance versus control [5]: significantly decreased

Molecule: ICR2-anti-miR-21: RIG-I agonist ICR2 conjugated with anti-miR-21; SEQ ID NO: 7 (GGAUGCGGUACCUGACAGCAUCCUCAACAUCAGUCUGAUAAGCUA; listed as RNA, further chemistry not given here)
- IFN-β production compared to ICR2 and ICR2AS conjugated with seed mutant anti-miR-21 [4]: increased induction

Molecule: Cc1ccccc1N=Nc1ccc(NC(=O)c2ccnn2C)c(C)c1 [CH223191]
- IFN-β production, cells pre-treated with mixture of 1-MT and CH223191 versus DMSO [1]: significantly increased
- IFN-β production, cells pre-treated with mixture of 1-MT and CH223191 versus DMSO [2]: significantly increased
- IFN-β production, cells pre-treated with mixture of 1-MT and CH223191 versus DMSO [3]: significantly increased

Molecule: Nc1ccccc1C(=O)CC(N)C(=O)O (stereo not shown) [Kyn, kynurenine]
- IFN-β production after secondary treatment, cells pretreated with the substance versus control [1]: significantly decreased
- IFN-β production after secondary treatment, cells pretreated with the substance versus control [2]: significantly decreased

Molecule: polyinosinic-polycytidylic acid [polyI:C]
- IFN-β production after retreatment ([6]; pIC 0.6 μg/ml with jet-PEI, transfected once or twice, one day after each transfection): reduced
- IFN-β production after retreatment [7]: reduced
- anticancer responses (survival), multiple treatments compared to single treatment [8]: did not significantly enhance
- IFN-β production after secondary treatment, cells pretreated with the substance versus control [1]: significantly decreased
- IFN-β production after secondary treatment, cells pretreated with the substance versus control [2]: significantly decreased
- IFN-β production after secondary treatment, cells pretreated with the substance versus control [5]: significantly decreased

Molecule: ICR4: immunogenic cell-killing RNA RIG-I agonist, 5′ppp-containing double stem-loop ssRNA; SEQ ID NO: 1 (GGAUGCGGUACCUGACAGCAUCCUAAACUCAUGGUCCAUGUUUGUCCAUGGACCA; RNA, 5' {PPP}, backbone not given here; double stem-loop single-stranded RNA) [reference compound]
- sensitivity to antitumor effects, B16-F0 cell line compared with B16-F10 cell line ([9]; 0.6 μg/ml, overnight, FIGS. 1A and 1B): much more sensitive
- cytotoxicity (cell death) ([9]; ICR4-liposome complex 0.6 μg/ml, overnight incubation, MTT assay): underwent cell death and IFN-β production
- cytotoxic effects after repeated treatments [9]: gradually augmented
- cytotoxicity (cell death) [10]: underwent cell death and IFN-β production
- IFN-β production after first and second transfection ([6]; ELISA): significantly reduced and not
- IFN-β production [6, 14]: underwent cell death and IFN-β production
- IFN-β production [4, 14]: underwent cell death and IFN-β production
- % cytotoxicity, cancer versus normal cells [11]: differentially sensitive; also recorded: Differential sensitivity
- response of the cells to the RIG-I agonist (resistance) [12]: resistant
- IFN-β production after secondary treatment, cells pretreated with the substance versus control [5]: significantly decreased

B1: mutant RigantmiR-21: composed of ICR4 and a non-complementary sequence to miR-21; SEQ ID NO: 3 (nucleic acid)
chain: GGAUGCGGUACCUGACAGCAUCUUGAAAUAAGGACUGAUGCUCAACAUCAGUCUGACACUCCA
modifications: chemistry not fully specified
- cytotoxic effects after repeated treatments [9]: gradually augmented
- IFN-β production after first and second transfection ([6]; ELISA): significantly reduced

B2: RigantmiR-146a: nucleic acid molecule comprising a RIG-I agonist sequence and a miR-146a antagonist sequence; SEQ ID NO: 4 (nucleic acid)
chain: GGAUGCGGUACCUGACAGCAUCCUCCCCCGCAUUCCAUGGUCAACCCAUGGAAUUCAGUUCUCA
modifications: listed as RNA, chemistry not given here
- IFN-β production by different cancer cells [13]: differentially induce

B3: high mobility group box 1 (protein, UniProt P09429 1-215, looked up)
High mobility group protein B1: MGKGDPKKPRGKMSSYAFFVQTCREEHKKKHPDASVNFSEFSKKCSERWKTMSAKEKGKFEDMAKADKARYEREMKTYIPPKGETKKKFKDPNAPKRPPSAFFLFCSEYRPKIKGEHPGLSIGDVAKKLGEMWNNTAADDKQPYEKKAAKLKEKYEKDIAAYRAKGKPDAAKKGVVKAEKSKKKKEEEEDEEDEEDEEEEEDEEDEDEEEDDDDE
notes: TLR4 agonist protein
- IFN-β production after secondary treatment, cells pretreated with the substance versus control [1]: significantly decreased
- IFN-β production after secondary treatment, cells pretreated with the substance versus control [2]: significantly decreased
- IFN-β production after secondary treatment, cells pretreated with the substance versus control [3]: significantly decreased
